{
  "source": "ChEMBL document CHEMBL4715855",
  "about": "“N-phenyl ureidobenzenesulfonates, a novel class of promising human dihydroorotate dehydrogenase inhibitors” (Bioorg Med Chem, 2020)",
  "format_in_all_cases": "functional, cell-based",
  "key": {"[1]": {"tested_on": "SN12C", "test": "Antiproliferative activity against human SN12C cells assessed as cell growth inhibition measured after 48 hrs by sulforhodamine B assay"}, "[2]": {"tested_on": "TK-10", "test": "Antiproliferative activity against human TK-10 cells assessed as cell growth inhibition measured after 48 hrs by sulforhodamine B assay", "conditions": "TK-10, 48 h"}, "[3]": {"tested_on": "UO-31", "test": "Antiproliferative activity against human UO-31 cells assessed as cell growth inhibition measured after 48 hrs by sulforhodamine B assay", "conditions": "UO-31, 48 h"}, "[4]": {"tested_on": "SF-268", "test": "Antiproliferative activity against human SF-268 cells assessed as cell growth inhibition measured after 48 hrs by sulforhodamine B assay", "conditions": "SF-268, 48 h"}, "[5]": {"tested_on": "SF-295", "test": "Antiproliferative activity against human SF-295 cells assessed as cell growth inhibition measured after 48 hrs by sulforhodamine B assay", "conditions": "SF-295, 48 h"}, "[6]": {"tested_on": "SF-539", "test": "Antiproliferative activity against human SF-539 cells assessed as cell growth inhibition measured after 48 hrs by sulforhodamine B assay", "conditions": "SF-539, 48 h"}, "[7]": {"tested_on": "SNB-19", "test": "Antiproliferative activity against human SNB-19 cells assessed as cell growth inhibition measured after 48 hrs by sulforhodamine B assay", "conditions": "SNB-19, 48 h"}, "[8]": {"tested_on": "SNB-75", "test": "Antiproliferative activity against human SNB-75 cells assessed as cell growth inhibition measured after 48 hrs by sulforhodamine B assay", "conditions": "SNB-75, 48 h"}, "[9]": {"tested_on": "U-251", "test": "Antiproliferative activity against human U-251 cells assessed as cell growth inhibition measured after 48 hrs by sulforhodamine B assay", "conditions": "U-251, 48 h"}, "[10]": {"tested_on": "LOX IMVI", "test": "Antiproliferative activity against human LOX IMVI cells assessed as cell growth inhibition measured after 48 hrs by sulforhodamine B assay"}, "[11]": {"tested_on": "Malme-3M", "test": "Antiproliferative activity against human Malme-3M cells assessed as cell growth inhibition measured after 48 hrs by sulforhodamine B assay"}, "[12]": {"tested_on": "M14", "test": "Antiproliferative activity against human M14 cells assessed as cell growth inhibition measured after 48 hrs by sulforhodamine B assay", "conditions": "M14, 48 h"}, "[13]": {"tested_on": "MDA-MB-435", "test": "Antiproliferative activity against human MDA-MB-435 cells assessed as cell growth inhibition measured after 48 hrs by sulforhodamine B assay", "conditions": "MDA-MB-435, 48 h"}, "[14]": {"tested_on": "SK-MEL-2", "test": "Antiproliferative activity against human SK-MEL-2 cells assessed as cell growth inhibition measured after 48 hrs by sulforhodamine B assay", "conditions": "SK-MEL-2, 48 h"}, "[15]": {"tested_on": "SK-MEL-28", "test": "Antiproliferative activity against human SK-MEL-28 cells assessed as cell growth inhibition measured after 48 hrs by sulforhodamine B assay", "conditions": "SK-MEL-28, 48 h"}, "[16]": {"tested_on": "SK-MEL-5", "test": "Antiproliferative activity against human SK-MEL-5 cells assessed as cell growth inhibition measured after 48 hrs by sulforhodamine B assay", "conditions": "SK-MEL-5, 48 h"}, "[17]": {"tested_on": "UACC-257", "test": "Antiproliferative activity against human UACC-257 cells assessed as cell growth inhibition measured after 48 hrs by sulforhodamine B assay", "conditions": "UACC-257, 48 h"}, "[18]": {"tested_on": "UACC-62", "test": "Antiproliferative activity against human UACC-62 cells assessed as cell growth inhibition measured after 48 hrs by sulforhodamine B assay", "conditions": "UACC-62, 48 h"}, "[19]": {"tested_on": "IGROV-1", "test": "Antiproliferative activity against human IGROV-1 cells assessed as cell growth inhibition measured after 48 hrs by sulforhodamine B assay", "conditions": "IGROV-1, 48 h"}, "[20]": {"tested_on": "OVCAR-3", "test": "Antiproliferative activity against human OVCAR-3 cells assessed as cell growth inhibition measured after 48 hrs by sulforhodamine B assay", "conditions": "OVCAR-3, 48 h"}, "[21]": {"tested_on": "OVCAR-4", "test": "Antiproliferative activity against human OVCAR-4 cells assessed as cell growth inhibition measured after 48 hrs by sulforhodamine B assay", "conditions": "OVCAR-4, 48 h"}, "[22]": {"tested_on": "OVCAR-5", "test": "Antiproliferative activity against human OVCAR-5 cells assessed as cell growth inhibition measured after 48 hrs by sulforhodamine B assay", "conditions": "OVCAR-5, 48 h"}, "[23]": {"tested_on": "OVCAR-8", "test": "Antiproliferative activity against human OVCAR-8 cells assessed as cell growth inhibition measured after 48 hrs by sulforhodamine B assay", "conditions": "OVCAR-8, 48 h"}, "[24]": {"tested_on": "NCI/ADR-RES", "test": "Antiproliferative activity against human NCI/ADR-RES cells assessed as cell growth inhibition measured after 48 hrs by sulforhodamine B assay"}, "[25]": {"tested_on": "SK-OV-3", "test": "Antiproliferative activity against human SK-OV-3 cells assessed as cell growth inhibition measured after 48 hrs by sulforhodamine B assay", "conditions": "SK-OV-3, 48 h"}, "[26]": {"tested_on": "MDA-MB-231", "test": "Antiproliferative activity against human MDA-MB-231/ATCC cells assessed as cell growth inhibition measured after 48 hrs by sulforhodamine B assay", "conditions": "MDA-MB-231, 48 h"}, "[27]": {"tested_on": "Hs-578T", "test": "Antiproliferative activity against human Hs-578T cells assessed as cell growth inhibition measured after 48 hrs by sulforhodamine B assay"}, "[28]": {"tested_on": "BT-549", "test": "Antiproliferative activity against human BT-549 cells assessed as cell growth inhibition measured after 48 hrs by sulforhodamine B assay", "conditions": "BT-549, 48 h"}, "[29]": {"tested_on": "T47D", "test": "Antiproliferative activity against human T47D cells assessed as cell growth inhibition measured after 48 hrs by sulforhodamine B assay"}, "[30]": {"tested_on": "PC-3", "test": "Antiproliferative activity against human PC-3 cells assessed as cell growth inhibition measured after 48 hrs by sulforhodamine B assay", "conditions": "PC-3, 48 h"}, "[31]": {"tested_on": "DU-145", "test": "Antiproliferative activity against human DU-145 cells assessed as cell growth inhibition measured after 48 hrs by sulforhodamine B assay", "conditions": "DU-145, 48 h"}, "[32]": {"tested_on": "Panel leukemia (Carcinoma cell lines)", "test": "Antiproliferative activity against human Panel leukemia (Carcinoma cell lines) assessed as cell growth inhibition measured after 48 hrs by SRB assay"}, "[33]": {"tested_on": "Panel colon (Carcinoma cell lines)", "test": "Antiproliferative activity against human Panel colon (Carcinoma cell lines) assessed as cell growth inhibition measured after 48 hrs by SRB assay"}, "[34]": {"tested_on": "Panel NCI-60 (60 carcinoma cell lines)", "test": "Antiproliferative activity against human Panel NCI-60 (60 carcinoma cell lines) assessed as cell growth inhibition measured after 48 hrs by SRB assay"}},
  "data": [
    {"smiles": "CCNC(=O)Nc1ccc(S(=O)(=O)Oc2ccccc2CC)cc1", "values": [
      {"measurement": "IC50", "setting": "[1]", "value": 7.24, "unit": "µM"},
      {"measurement": "IC50", "setting": "[2]", "value": 13.2, "unit": "µM"},
      {"measurement": "IC50", "setting": "[3]", "value": 6.03, "unit": "µM"},
      {"measurement": "IC50", "setting": "[4]", "value": 2.88, "unit": "µM"},
      {"measurement": "IC50", "setting": "[5]", "value": 0.759, "unit": "µM"},
      {"measurement": "IC50", "setting": "[6]", "value": 2.14, "unit": "µM"},
      {"measurement": "IC50", "setting": "[7]", "value": 3.63, "unit": "µM"},
      {"measurement": "IC50", "setting": "[8]", "value": 9.12, "unit": "µM"},
      {"measurement": "IC50", "setting": "[9]", "value": 0.617, "unit": "µM"},
      {"measurement": "IC50", "setting": "[10]", "value": 0.417, "unit": "µM"},
      {"measurement": "IC50", "setting": "[11]", "value": 17.8, "unit": "µM"},
      {"measurement": "IC50", "setting": "[12]", "value": 4.17, "unit": "µM"},
      {"measurement": "IC50", "setting": "[13]", "value": 4.47, "unit": "µM"},
      {"measurement": "IC50", "setting": "[14]", "value": 16.2, "unit": "µM"},
      {"measurement": "IC50", "setting": "[15]", "value": 11.7, "unit": "µM"},
      {"measurement": "IC50", "setting": "[16]", "value": 2.45, "unit": "µM"},
      {"measurement": "IC50", "setting": "[17]", "value": 13.2, "unit": "µM"},
      {"measurement": "IC50", "setting": "[18]", "value": 2.51, "unit": "µM"},
      {"measurement": "IC50", "setting": "[19]", "value": 5.89, "unit": "µM"},
      {"measurement": "IC50", "setting": "[20]", "value": 6.61, "unit": "µM"},
      {"measurement": "IC50", "setting": "[21]", "value": 22.4, "unit": "µM"},
      {"measurement": "IC50", "setting": "[22]", "value": 22.9, "unit": "µM"},
      {"measurement": "IC50", "setting": "[23]", "value": 0.851, "unit": "µM"},
      {"measurement": "IC50", "setting": "[24]", "value": 3.55, "unit": "µM"},
      {"measurement": "IC50", "setting": "[25]", "value": 12.6, "unit": "µM"},
      {"measurement": "IC50", "setting": "[26]", "value": 11.7, "unit": "µM"},
      {"measurement": "IC50", "setting": "[27]", "value": 11.2, "unit": "µM"},
      {"measurement": "IC50", "setting": "[28]", "value": 11.7, "unit": "µM"},
      {"measurement": "IC50", "setting": "[29]", "value": 16.2, "unit": "µM"},
      {"measurement": "IC50", "setting": "[30]", "value": 0.832, "unit": "µM"},
      {"measurement": "IC50", "setting": "[31]", "value": 1.23, "unit": "µM"},
      {"measurement": "IC50", "setting": "[32]", "value": 0.81, "unit": "µM"},
      {"measurement": "IC50", "setting": "[33]", "value": 1.5, "unit": "µM"},
      {"measurement": "IC50", "setting": "[34]", "value": 3.5, "unit": "µM"}
    ]}
  ]
}
